Measurements: ChEMBL document CHEMBL3994655, “Methylsulfonyl benzothiazoles (MSBT) derivatives: Search for new potential antimicrobial and anticancer agents” (2017)
≈ marks a conversion by molar mass, not a printed value.

What was measured:
Staphylococcus aureus [1] = experiment: Antibacterial activity against Staphylococcus aureus 209P assessed as zone of inhibition at 5 mg/ml by agar well diffusion method; type: functional; conditions: read-out: DIZ
HeLa [2] = experiment: Cytotoxicity against human HeLa cells assessed as reduction in cell viability after 48 hrs by SRB assay; type: functional, cell-based
HeLa [3] = experiment: Cytotoxicity against human HeLa cells assessed as cell growth at 10^-5 M after 48 hrs by SRB assay relative to control; type: functional; conditions: read-out: Activity
Escherichia coli [4] = experiment: Antibacterial activity against Escherichia coli ATCC 35421 after 24 to 48 hrs by macro-broth dilution method; type: functional
HeLa [5] = experiment: Cytotoxicity against human HeLa cells assessed as cell growth at 10^-4 M after 48 hrs by SRB assay relative to control; type: functional; conditions: read-out: Activity
Candida albicans [6] = experiment: Antifungal activity against Candida albicans A01 assessed as zone of inhibition at 1 mg/ml by agar well diffusion method; type: functional; conditions: read-out: DIZ
[7] = tested on: Staphylococcus epidermidis; experiment: Antibacterial activity against Staphylococcus epidermidis 209E after 24 to 48 hrs by macro-broth dilution method; type: functional
Staphylococcus aureus [8] = experiment: Antibacterial activity against Staphylococcus aureus 209P after 24 to 48 hrs by macro-broth dilution method; type: functional
HeLa [9] = experiment: Cytotoxicity against human HeLa cells assessed as cell growth at 10^-6 M after 48 hrs by SRB assay relative to control; type: functional; conditions: read-out: Activity
Staphylococcus aureus [10] = experiment: Antibacterial activity against Staphylococcus aureus 209P assessed as zone of inhibition at 1 mg/ml by agar well diffusion method; type: functional; conditions: read-out: DIZ
HeLa [11] = experiment: Growth inhibition of human HeLa cells after 48 hrs by SRB assay; type: functional
Candida albicans [12] = experiment: Antifungal activity against Candida albicans A01 assessed as zone of inhibition at 5 mg/ml by agar well diffusion method; type: functional; conditions: read-out: DIZ
Staphylococcus aureus [13] = experiment: Antibacterial activity against methicillin-resistant Staphylococcus aureus 3710 after 24 to 48 hrs by macro-broth dilution method; type: functional
HeLa [14] = experiment: Cytotoxicity against human HeLa cells assessed as cell growth at 10^-7 M after 48 hrs by SRB assay relative to control; type: functional; conditions: read-out: Activity
Escherichia coli [15] = experiment: Antibacterial activity against Escherichia coli ATCC 35421 assessed as zone of inhibition at 1 mg/ml by agar well diffusion method; type: functional; conditions: read-out: DIZ
Pseudomonas aeruginosa = experiment: Antibacterial activity against Pseudomonas aeruginosa M5 after 24 to 48 hrs by macro-broth dilution method; type: functional
Staphylococcus aureus [16] = experiment: Antibacterial activity against methicillin-resistant Staphylococcus aureus ATCC 33591 after 24 to 48 hrs by macro-broth dilution method; type: functional
Escherichia coli [17] = experiment: Antibacterial activity against Escherichia coli ATCC 20732 after 24 to 48 hrs by macro-broth dilution method; type: functional
Escherichia coli [18] = experiment: Antibacterial activity against Escherichia coli ATCC 35421 assessed as zone of inhibition at 5 mg/ml by agar well diffusion method; type: functional; conditions: read-out: DIZ
Nakaseomyces glabratus [19] = experiment: Antifungal activity against Candida glabrata H04 after 24 to 48 hrs by macro-broth dilution method; type: functional
Pichia kudriavzevii [20] = experiment: Antifungal activity against Candida krusei G06 after 24 to 48 hrs by macro-broth dilution method; type: functional
Nakaseomyces glabratus [21] = experiment: Antifungal activity against Candida glabrata H05 after 24 to 48 hrs by macro-broth dilution method; type: functional
Candida albicans [22] = experiment: Antifungal activity against Candida albicans A01 after 24 to 48 hrs by macro-broth dilution method; type: functional
Candida albicans [23] = experiment: Antifungal activity against Candida albicans ATCC 10231 after 24 to 48 hrs by macro-broth dilution method; type: functional
Pichia kudriavzevii [24] = experiment: Antifungal activity against Candida krusei G03 after 24 to 48 hrs by macro-broth dilution method; type: functional

SMILES	zone of inhibition at 5000 µg/mL (Staphylococcus aureus [1])	Activity (HeLa [2])	growth at 10 µM (HeLa [3])	MIC (Escherichia coli [4])	growth at 100 µM (HeLa [5])	zone of inhibition at 1000 µg/mL (Candida albicans [6])	MIC [7]	MIC (Staphylococcus aureus [8])	growth at 1 µM (HeLa [9])	zone of inhibition at 1000 µg/mL (Staphylococcus aureus [10])	GI50 (HeLa [11])	LC50 (HeLa [11])	TGI (HeLa [11])	growth inhibition (GI) (HeLa [11])	zone of inhibition at 5000 µg/mL (Candida albicans [12])	MIC (Staphylococcus aureus [13])	growth at 0.1 µM (HeLa [14])	zone of inhibition at 1000 µg/mL (Escherichia coli [15])	MIC (Pseudomonas aeruginosa)	zone of inhibition at 5000 µg/mL (Escherichia coli [18])	other results
CCOc1ccc2sc(S(C)(=O)=O)nc2c1S(=O)(=O)NC(C)(C)C	13 mm	Dose-dependent effect	-6.7%	20 mg/L (≈ 51 µM)	-76.3%	≤ 7 mm	10 mg/L (≈ 25.5 µM)	8 mg/L (≈ 20.4 µM)	42.1%	≤ 7 mm	0.6 µM	76.6 µM	38.6 µM	Dose-dependent effect	≤ 7 mm	10 mg/L (≈ 25.5 µM)	97.9%	9 mm	50 mg/L (≈ 127 µM)	10 mm	MIC (Staphylococcus aureus [16]): 10 mg/L (≈ 25.5 µM); MIC (Escherichia coli [17]): 20 mg/L (≈ 51 µM)
CCOc1ccc2sc(S(C)(=O)=O)nc2c1N	≤ 7 mm	Dose-dependent effect	65.6%		-31.9%	≤ 7 mm			93%	17 mm	34 µM	> 100 µM	74.3 µM	Dose-dependent effect	19 mm		99.5%	≤ 7 mm		≤ 7 mm	MIC (Nakaseomyces glabratus [19]): 10 mg/L (≈ 36.7 µM); MIC (Pichia kudriavzevii [20]): 10 mg/L (≈ 36.7 µM); MIC (Nakaseomyces glabratus [21]): 10 mg/L (≈ 36.7 µM); MIC (Candida albicans [22]): 8 mg/L (≈ 29.4 µM); MIC (Candida albicans [23]): 4 mg/L (≈ 14.7 µM); MIC (Pichia kudriavzevii [24]): 10 mg/L (≈ 36.7 µM)
OC(Cn1cncn1)(Cn1cncn1)c1ccc(F)cc1F [FLUCONAZOLE]																					MIC (Nakaseomyces glabratus [19]): 2 mg/L (≈ 6.53 µM); MIC (Pichia kudriavzevii [20]): 2 mg/L (≈ 6.53 µM); MIC (Nakaseomyces glabratus [21]): 2 mg/L (≈ 6.53 µM); MIC (Candida albicans [22]): 4 mg/L (≈ 13.1 µM); MIC (Candida albicans [23]): 4 mg/L (≈ 13.1 µM); MIC (Pichia kudriavzevii [24]): 2 mg/L (≈ 6.53 µM)
CCOc1ccc2sc(S(C)(=O)=O)nc2c1S(=O)(=O)NC(CC)CC	21 mm	Dose-dependent effect	35.6%	50 mg/L (≈ 123 µM)	-65.8%	≤ 7 mm	50 mg/L (≈ 123 µM)	50 mg/L (≈ 123 µM)	89.4%	13 mm	19.5 µM	87.4 µM	53.5 µM	Dose-dependent effect	≤ 7 mm	100 mg/L (≈ 246 µM)	91.8%	9 mm	100 mg/L (≈ 246 µM)	10 mm	MIC (Staphylococcus aureus [16]): 100 mg/L (≈ 246 µM); MIC (Escherichia coli [17]): 50 mg/L (≈ 123 µM)
CS(=O)(=O)c1nc2cc(OCc3ccc(Cl)cc3)ccc2s1	22 mm	Dose-dependent effect	60.8%	20 mg/L (≈ 56.5 µM)	-50.5%	9 mm	100 mg/L (≈ 283 µM)	100 mg/L (≈ 283 µM)	89.9%	13 mm	33 µM	> 100 µM	73.3 µM	Dose-dependent effect	16 mm	100 mg/L (≈ 283 µM)	100%	9 mm	50 mg/L (≈ 141 µM)	10 mm	MIC (Nakaseomyces glabratus [19]): 50 mg/L (≈ 141 µM); MIC (Pichia kudriavzevii [20]): 20 mg/L (≈ 56.5 µM); MIC (Nakaseomyces glabratus [21]): 50 mg/L (≈ 141 µM); MIC (Staphylococcus aureus [16]): 100 mg/L (≈ 283 µM); MIC (Candida albicans [22]): 20 mg/L (≈ 56.5 µM); MIC (Candida albicans [23]): 20 mg/L (≈ 56.5 µM); MIC (Escherichia coli [17]): 20 mg/L (≈ 56.5 µM); MIC (Pichia kudriavzevii [24]): 20 mg/L (≈ 56.5 µM)
